The target in this experiment is IgE-Tb binding to soluble IgE receptor FcεR1α (Y131A mutation) (Homo sapiens, UniProt P01854, N146Q/N252Q). Description: In vitro FRET assay: inhibition of binding of IgE-Tb to receptor FcεR1α-Y131A-AF488. Particulars: read-out: FRET IC50 range.

Molecules are shown by their SMILES.

What is called IC50 is the concentration that gives 50% inhibition.

Chain of IgE-Tb binding to soluble IgE receptor FcεR1α (Y131A mutation) (P01854 whole entry N146Q/N252Q, looked up): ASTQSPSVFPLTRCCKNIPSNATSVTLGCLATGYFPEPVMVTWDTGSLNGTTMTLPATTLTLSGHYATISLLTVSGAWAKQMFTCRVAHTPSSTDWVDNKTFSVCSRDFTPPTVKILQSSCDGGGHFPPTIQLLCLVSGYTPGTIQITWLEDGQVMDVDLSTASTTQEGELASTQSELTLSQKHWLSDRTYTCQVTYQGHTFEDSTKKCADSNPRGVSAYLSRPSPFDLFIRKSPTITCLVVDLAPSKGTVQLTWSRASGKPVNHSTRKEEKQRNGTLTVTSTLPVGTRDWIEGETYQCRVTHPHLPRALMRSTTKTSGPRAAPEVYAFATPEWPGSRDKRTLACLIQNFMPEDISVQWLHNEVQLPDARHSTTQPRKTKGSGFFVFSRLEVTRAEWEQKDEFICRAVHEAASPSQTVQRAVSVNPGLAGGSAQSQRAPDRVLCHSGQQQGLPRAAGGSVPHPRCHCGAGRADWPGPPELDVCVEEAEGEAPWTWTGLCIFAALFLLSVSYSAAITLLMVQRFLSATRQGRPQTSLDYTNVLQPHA

Consider `Cn1ncc2c(NC3CCc4c3cc(S(=O)(=O)NCC(C)(C)F)c3cc(C5CC5)ncc43)cncc21` (stereo not drawn) [Example 41, 3-cyclopropyl-N-(2-fluoro-2-methylpropyl)-7-[(1-methylpyrazolo[3,4-c]pyridin-4-yl)amino]-8,9-dihydro-7H-cyclopenta[h]isoquinoline-5-sulfonamide], for which the IC50 lay within 10 to 50 nM.

On to `CC(C)CNS(=O)(=O)c1cc2c(c3cnc(C4CC4)cc13)C(NCc1cccnc1)CC2` (stereo not drawn) [Example 14, 3-cyclopropyl-N-(2-methylpropyl)-9-(pyridin-3-ylmethylamino)-8,9-dihydro-7H-cyclopenta[h]isoquinoline-5-sulfonamide], for which the 50% inhibitory concentration (IC50) fell in the range of 100 to 2000 nM.

Turning to `CC(C)(F)CNS(=O)(=O)c1cc2c(c3cnc(C4CC4)cc13)OCC2O` (stereo not drawn) [Example 36, 7-cyclopropyl-N-(2-fluoro-2-methylpropyl)-3-hydroxy-2,3-dihydrofuro[3,2-h]isoquinoline-5-sulfonamide], the half-inhibitory concentration (IC50) was 10 to 50 nM.

Take `CC(C)CNS(=O)(=O)c1cc2c(c3cnc(C4CC4)cc13)C(NC(=O)Nc1ccc(Br)cc1)CC2` (stereo not drawn) [Example 45, 1-(4-bromophenyl)-3-[3-cyclopropyl-5-(2-methylpropylsulfamoyl)-8,9-dihydro-7H-cyclopenta[h]isoquinolin-9-yl]urea]: the IC50 fell in the range of 100 to 2000 nM.

Turning to `CC(C)CNS(=O)(=O)c1cc2c(c3cnc(C4CC4)cc13)C(n1cnnc1Nc1cncc(F)c1)CC2` (stereo not drawn) [Example 6, 3-cyclopropyl-9-[3-[(5-fluoro-3-pyridyl)amino]-1,2,4-triazol-4-yl]-N-isobutyl-8,9-dihydro-7H-cyclopenta[h]isoquinoline-5-sulfonamide], the half-inhibitory concentration (IC50) is 100 to 2000 nM.

`CC(C)CNS(=O)(=O)c1cc2c(c3cnc(C4CC4)cc13)C(=O)CC2` [Example 63, 3-cyclopropyl-N-(2-methylpropyl)-9-oxo-7,8-dihydrocyclopenta[h]isoquinoline-5-sulfonamide]: the IC50 was in the range of 100 to 2000 nM.

Consider `CCNc1c(N[C@@H]2CCc3cc(S(=O)(=O)NCC(C)C)c4cc(C5CC5)ncc4c32)c(=O)c1=O` (single isomer, unassigned) [Example 79, (9R*)-3-cyclopropyl-9-[[2-(ethylamino)-3,4-dioxocyclobuten-1-yl]amino]-N-(2-methylpropyl)-8,9-dihydro-7H-cyclopenta[h]isoquinoline-5-sulfonamide], for which the IC50 was 10 to 50 nM.

Turning to `CC(C)(F)CNS(=O)(=O)c1cc2c(c3cnc(C4CC4)cc13)CCC2c1cccnc1F` (stereo not drawn) [Example 11, 3-cyclopropyl-N-(2-fluoro-2-methylpropyl)-7-(2-fluoropyridin-3-yl)-8,9-dihydro-7H-cyclopenta[h]isoquinoline-5-sulfonamide], the concentration for half-maximal inhibition (IC50) lay within 100 to 2000 nM.

In the case of `CC(C)(F)CNS(=O)(=O)c1cc2c(c3cnc(C4CC4)cc13)CC[C@H]2C(=O)Nc1cccnc1` (single isomer, unassigned) [Example 37, (7R*)-3-cyclopropyl-5-[(2-fluoro-2-methylpropyl)sulfamoyl]-N-pyridin-3-yl-8,9-dihydro-7H-cyclopenta[h]isoquinoline-7-carboxamide], the 50% inhibitory concentration (IC50) lay in the range of 100 to 2000 nM.

For `Cc1cc(NC(=S)NC2CCc3c2cc(S(=O)(=O)NCC(C)(C)F)c2cc(C4CC4)nnc32)n(C)n1` (stereo not drawn) [Example 23, 1-[3-cyclopropyl-5-[(2-fluoro-2-methylpropyl)sulfamoyl]-8,9-dihydro-7H-cyclopenta[h]cinnolin-7-yl]-3-(2,5-dimethylpyrazol-3-yl)thiourea], the concentration for half-maximal inhibition (IC50) was 10 to 50 nM.

Consider `CC(C)CNS(=O)(=O)c1cc2c(c3cnc(C4CC4)c(F)c13)CCC2` [Example 27, 3-cyclopropyl-4-fluoro-N-(2-methylpropyl)-8,9-dihydro-7H-cyclopenta[h]isoquinoline-5-sulfonamide], for which the 50% inhibitory concentration (IC50) was in the range of 100 to 2000 nM.

As to `Cn1ncc2c(NC3CCc4cc(S(=O)(=O)NCC(C)(C)F)c5cc(C6CC6)ncc5c43)cncc21` (stereo not drawn) [Example 43, 3-cyclopropyl-N-(2-fluoro-2-methylpropyl)-9-[(1-methylpyrazolo[3,4-c]pyridin-4-yl)amino]-8,9-dihydro-7H-cyclopenta[h]isoquinoline-5-sulfonamide], the IC50 is 100 to 2000 nM.

As to `CC(C)(F)CNS(=O)(=O)c1cc2c(c3cnc(C4CC4)cc13)CCC2N1CCC[C@@H](N)C1` (stereo partly drawn) [Example 57, 7-[(3R)-3-aminopiperidin-1-yl]-3-cyclopropyl-N-(2-fluoro-2-methylpropyl)-8,9-dihydro-7H-cyclopenta[h]isoquinoline-5-sulfonamide], the 50% inhibitory concentration (IC50) lay within 100 to 2000 nM.

`CC(C)CNS(=O)(=O)c1cc2c(c3cnc(C4CC4)cc13)C(O)CC2` (stereo not drawn) [Example 62, 3-cyclopropyl-9-hydroxy-N-(2-methylpropyl)-8,9-dihydro-7H-cyclopenta[h]isoquinoline-5-sulfonamide]: the IC50 was 100 to 2000 nM.

As for `Cn1nnc(-c2ccc(NC3CCc4cc(S(=O)(=O)NCC(C)(C)F)c5cc(C6CC6)ncc5c43)cn2)n1` (stereo not drawn) [Example 77, 3-cyclopropyl-N-(2-fluoro-2-methylpropyl)-9-[[6-(2-methyltetrazol-5-yl)pyridin-3-yl]amino]-8,9-dihydro-7H-cyclopenta[h]isoquinoline-5-sulfonamide], the IC50 was 50 to 100 nM.

Regarding `CC(C)(F)CNS(=O)(=O)c1cc2c(c3cnc(C4CC4)cc13)CC[C@@H]2NC(=O)c1cccnc1` (single isomer, unassigned) [Example 9, N-[(7R*)-3-cyclopropyl-5-[(2-fluoro-2-methylpropyl)sulfamoyl]-8,9-dihydro-7H-cyclopenta[h]isoquinolin-7-yl]pyridine-3-carboxamide], the IC50 lay within 100 to 2000 nM.

In the case of `CC(C)CNS(=O)(=O)c1cc2c(c3cnc(C4CC4)cc13)C(NC(=S)Nc1cccnc1)CC2` (stereo not drawn) [Example 74, 1-[3-cyclopropyl-5-(2-methylpropylsulfamoyl)-8,9-dihydro-7H-cyclopenta[h]isoquinolin-9-yl]-3-pyridin-3-ylthiourea], the IC50 lay within 100 to 2000 nM.

In the case of `CC(C)(F)CNS(=O)(=O)c1cc2c(c3cnc(C4CC4)cc13)CC[C@H]2NC(=O)NCC1CC1` (single isomer, unassigned) [Example 8, 1-(cyclopropylmethyl)-3-[(7R*)-3-cyclopropyl-5-[(2-fluoro-2-methylpropyl)sulfamoyl]-8,9-dihydro-7H-cyclopenta[h]isoquinolin-7-yl]urea], the concentration for half-maximal inhibition (IC50) fell in the range of 100 to 2000 nM.

Consider `Cn1c(NC2CCc3cc(S(=O)(=O)NCC(C)(C)F)c4cc(C5CC5)ncc4c32)nc2ccccc21` (stereo not drawn) [Example 17, 3-cyclopropyl-N-(2-fluoro-2-methylpropyl)-9-[(1-methylbenzimidazol-2-yl)amino]-8,9-dihydro-7H-cyclopenta[h]isoquinoline-5-sulfonamide], for which the IC50 fell in the range of 100 to 2000 nM.

For the compound `CCNc1nncn1C1CCc2c1cc(S(=O)(=O)NCC(C)C)c1cc(C3CC3)ncc21` (single isomer, unassigned) [Example 52, (7R*)-3-cyclopropyl-7-[3-(ethylamino)-1,2,4-triazol-4-yl]-N-(2-methylpropyl)-8,9-dihydro-7H-cyclopenta[h]isoquinoline-5-sulfonamide], the half-maximal inhibitory concentration (IC50) was in the range of 10 to 50 nM.

As to `[2H]C([2H])(NS(=O)(=O)c1cc2c(c3cnc(C4CC4)cc13)CCC2n1cnnc1NCC1CC1)C(C)C` (stereo not drawn) [Example 35, 3-cyclopropyl-7-[3-(cyclopropylmethylamino)-1,2,4-triazol-4-yl]-N-(1,1-dideuterio-2-methylpropyl)-8,9-dihydro-7H-cyclopenta[h]isoquinoline-5-sulfonamide], the 50% inhibitory concentration (IC50) lay within 10 to 50 nM.

Source of the values: patent US20240092773A1, “DIHYDRO-CYCLOPENTA-ISOQUINOLINE SULFONAMIDES DERIVATIVES” (UCB Biopharma SRL, priority 2019, published 2024).
